# Reference: US20250000858A1, “FGFR TYROSINE KINASE INHIBITORS FOR THE TREATMENT OF ADVANCED SOLID TUMORS” (JANSSEN PHARMACEUTICA NV, priority 2021, published 2025)
# System: advanced solid tumors with FGFR mutations or fusions
# Test: Phase 2 RAGNAR study (NCT04083976): tumor response per RECIST v1.1 or RANO by IRC and investigator (ORR, DOR, DCR, CBR, PFS, OS, best overall response)
# Type: in vivo, human
# Details: for DOR of longest ongoing PR: + = censored, IA3; for Clinical Benefit Rate n(%) (95% CI) / Confirmed Objective Response Rate n(%) (95% CI) / Disease Control Rate n(%) (95% CI) / Median DOR (95% CI) / Median PFS (95% CI) / Median OS (95% CI): BPC; for Clinical Benefit Rate n(%) (95% CI) / Confirmed Objective Response Rate n(%) (95% CI) / Disease Control Rate n(%) (95% CI) / Median DOR (95% CI) / Median PFS (95% CI): IRC
# Text: Subjects ≥12 years of age with target FGFR mutations or any FGFR gene fusions were enrolled into the Broad Panel Cohort. […] A subgroup of subjects in the Broad Panel Cohort with a select panel of pre-specified FGFR markers were identified as the Core Panel Cohort (for analysis only). While the Broad Panel Cohort consists of target FGFR mutations and any fusions, the Core Panel Cohort consists of a select subset of FGFR mutations or fusions. Subjects with any other FGFR mutations that are not captured in the Broad Panel Cohort are included in the study as the Exploratory Cohort. A separate Cholangiocarcinoma Expansion Cohort enrolled subjects with target FGFR mutations or any FGFR gene fusion once the Broad Panel Cohort reached the cap of approximately 30 subjects for cholangiocarcinoma. […] Adolescent subjects enrolled in the Broad Panel Cohort (≥12 to <18 years) are considered part of the Broad Panel Cohort and the Pediatric Cohort.
# (§1) Each dose was taken approximately at the same time each day, with or without food.
# The Treated Population will consist of all subjects who receive at least 1 dose of study drug. The Treated Population is the primary population for efficacy and safety analyses. […] Adequate disease assessment is defined as having enough evidence to indicate that progression has or has not occurred.
# Statistical Methods: For the Broad Panel Cohort, the primary endpoint was overall response rate (ORR) based on RECIST v1.1. or RANO as assessed by the IRC and was calculated with a 95% 2-sided exact confidence interval (CI). The primary endpoint was analyzed using data from the Treated Population (defined as all subjects who receive at least 1 dose of study drug) in the Broad Panel Cohort and the Core Panel Cohort. An error-spending function approach was used to split the significance level for the Broad Panel Cohort and the Core Panel Cohort.
# as §1
# [1] = CUP (Carcinoma of Unknown Primary), N=8
# [2] = EDMTL (Endometrial Cancer), N=6
# [3] = HNSCC (Squamous Cell Head and Neck Cancers), N=5
# [4] = Others (tumor histologies with 1 subject treated), N=14
# [5] = PANCR (Pancreatic Cancer), N=13
# [6] = SALIV (Salivary Gland Cancer), N=5
# [7] = nonsqNSCLC (Non-squamous NSCLC), N=7
# [8] = BRST (breast cancer), N=7, efficacy analysis set, investigator assessment
compound,measurement,setting,value
"COc1cc(OC)cc(N(CCNC(C)C)c2ccc3ncc(-c4cnn(C)c4)nc3c2)c1 [erdafitinib, N-(3,5-dimethoxy-phenyl)-N′-(1-methylethyl)-N-[3-(1-methyl-1H-pyrazol-4-yl)quinoxalin-6-yl]ethane-1,2-diamine]",DOR of longest ongoing PR,1 patient with endometrial cancer,≥ 13.7 months
same,DOR of longest ongoing PR,1 patient with pancreatic cancer,≥ 13.8 months
same,clinical benefit rate (CBR: CR+PR+SD>4 months),"69/124, efficacy analysis set",55.6%
same,Objective Response Rate,"BCC, N=1, efficacy analysis set, investigator assessment","0 (NE, NE) %"
same,Clinical Benefit Rate n(%) (95% CI),"BRST (Breast Cancer), N=14",6 (42.9%)
same,Confirmed Objective Response Rate n(%) (95% CI),"BRST (Breast Cancer), N=14",5 (35.7%)
same,Disease Control Rate n(%) (95% CI),"BRST (Breast Cancer), N=14",9 (64.3%)
same,Median DOR (95% CI),"BRST (Breast Cancer), N=14","NE (NE, NE)"
same,Median PFS (95% CI),"BRST (Breast Cancer), N=14","4.17 (1.22, NE) months"
same,Confirmed Objective Response Rate n(%) (95% CI),"CCA (Cholangiocarcinoma), N=31",16 (51.6%)
same,Disease Control Rate n(%) (95% CI),"CCA (Cholangiocarcinoma), N=31",30 (96.8%)
same,Median PFS (95% CI),"CCA (Cholangiocarcinoma), N=31","8.25 (6.41, 9.72) months"
same,Clinical Benefit Rate n(%) (95% CI),"CRC (Colorectal Cancer), N=6",1 (16.7%)
same,Confirmed Objective Response Rate n(%) (95% CI),"CRC (Colorectal Cancer), N=6","0 (NE, NE) %"
same,Disease Control Rate n(%) (95% CI),"CRC (Colorectal Cancer), N=6",2 (33.3%)
same,Median PFS (95% CI),"CRC (Colorectal Cancer), N=6","1.15 (0.43, NE) months"
same,Clinical Benefit Rate n(%) (95% CI),"CRVX (Cervical Cancer), N=4",1 (25.0%)
same,Confirmed Objective Response Rate n(%) (95% CI),"CRVX (Cervical Cancer), N=4","0 (NE, NE) %"
same,Disease Control Rate n(%) (95% CI),"CRVX (Cervical Cancer), N=4",3 (75.0%)
same,Median PFS (95% CI),"CRVX (Cervical Cancer), N=4","3.52 (1.38, NE) months"
same,Clinical Benefit Rate n(%) (95% CI),[1],5 (62.5%)
same,Confirmed Objective Response Rate n(%) (95% CI),[1],2 (25.0%)
same,Disease Control Rate n(%) (95% CI),[1],7 (87.5%)
same,Median DOR (95% CI),[1],"NE (2.66, NE)"
same,Median PFS (95% CI),[1],"4.78 (2.04, NE) months"
same,Clinical Benefit Rate n(%) (95% CI),[2],3 (50.0%)
same,Confirmed Objective Response Rate n(%) (95% CI),[2],3 (50.0%)
same,Disease Control Rate n(%) (95% CI),[2],4 (66.7%)
same,Median PFS (95% CI),[2],"4.11 (1.31, NE) months"
same,Clinical Benefit Rate n(%) (95% CI),"ESOPH (Esophageal Cancer), N=6",1 (16.7%)
same,Confirmed Objective Response Rate n(%) (95% CI),"ESOPH (Esophageal Cancer), N=6",1 (16.7%)
same,Disease Control Rate n(%) (95% CI),"ESOPH (Esophageal Cancer), N=6",2 (33.3%)
same,Median PFS (95% CI),"ESOPH (Esophageal Cancer), N=6","1.31 (0.30, NE) months"
same,Clinical Benefit Rate n(%) (95% CI),"GSTRC (Gastric Cancer), N=5","0 (NE, NE) %"
same,Confirmed Objective Response Rate n(%) (95% CI),"GSTRC (Gastric Cancer), N=5","0 (NE, NE) %"
same,Disease Control Rate n(%) (95% CI),"GSTRC (Gastric Cancer), N=5",3 (60.0%)
same,Median PFS (95% CI),"GSTRC (Gastric Cancer), N=5","2.30 (1.22, NE) months"
same,Clinical Benefit Rate n(%) (95% CI),"HGG (High-grade Glioma), N=29",10 (34.5%)
same,Confirmed Objective Response Rate n(%) (95% CI),"HGG (High-grade Glioma), N=29",3 (10.3%)
same,Disease Control Rate n(%) (95% CI),"HGG (High-grade Glioma), N=29",16 (55.2%)
same,Median DOR (95% CI),"HGG (High-grade Glioma), N=29","NE (NE, NE)"
same,Median PFS (95% CI),"HGG (High-grade Glioma), N=29","3.86 (2.96, 5.19) months"
same,Clinical Benefit Rate n(%) (95% CI),[3],2 (40.0%)
same,Confirmed Objective Response Rate n(%) (95% CI),[3],2 (40.0%)
same,Disease Control Rate n(%) (95% CI),[3],4 (80.0%)
same,Median PFS (95% CI),[3],"4.04 (0.39, NE) months"
same,Clinical Benefit Rate n(%) (95% CI),"LGG (Low-grade Glioma), N=6",3 (50.0%)
same,Confirmed Objective Response Rate n(%) (95% CI),"LGG (Low-grade Glioma), N=6",2 (33.3%)
same,Disease Control Rate n(%) (95% CI),"LGG (Low-grade Glioma), N=6",4 (66.7%)
same,Median DOR (95% CI),"LGG (Low-grade Glioma), N=6","NE (NE, NE)"
same,Median PFS (95% CI),"LGG (Low-grade Glioma), N=6","NE (2.76, NE)"
same,Clinical Benefit Rate n(%) (95% CI),"OVAR (Ovarian Cancer), N=4",1 (25.0%)
same,Confirmed Objective Response Rate n(%) (95% CI),"OVAR (Ovarian Cancer), N=4",1 (25.0%)
same,Disease Control Rate n(%) (95% CI),"OVAR (Ovarian Cancer), N=4",2 (50.0%)
same,Median PFS (95% CI),"OVAR (Ovarian Cancer), N=4","6.70 (NE, NE) months"
same,Clinical Benefit Rate n(%) (95% CI),"Other, N=31",18 (58.1%)
same,Confirmed Objective Response Rate n(%) (95% CI),"Other, N=31",8 (25.8%)
same,Median PFS (95% CI),"Other, N=31","5.52 (2.76, 8.61) months"
same,Clinical Benefit Rate n(%) (95% CI),[4],7 (50.0%)
same,Confirmed Objective Response Rate n(%) (95% CI),[4],2 (14.3%)
same,Disease Control Rate n(%) (95% CI),[4],11 (78.6%)
same,Median DOR (95% CI),[4],"NE (NE, NE)"
same,Median PFS (95% CI),[4],"4.39 (1.41, NE) months"
same,Clinical Benefit Rate n(%) (95% CI),[5],6 (46.2%)
same,Confirmed Objective Response Rate n(%) (95% CI),[5],5 (38.5%)
same,Disease Control Rate n(%) (95% CI),[5],12 (92.3%)
same,Median PFS (95% CI),[5],"4.76 (3.02, NE) months"
same,Clinical Benefit Rate n(%) (95% CI),"PCA (Prostate Cancer), N=2","0 (NE, NE) %"
same,Confirmed Objective Response Rate n(%) (95% CI),"PCA (Prostate Cancer), N=2","0 (NE, NE) %"
same,Disease Control Rate n(%) (95% CI),"PCA (Prostate Cancer), N=2","0 (NE, NE) %"
same,Median PFS (95% CI),"PCA (Prostate Cancer), N=2","1.26 (1.18, NE) months"
same,Clinical Benefit Rate n(%) (95% CI),[6],5 (100.0%)
same,Confirmed Objective Response Rate n(%) (95% CI),[6],4 (80.0%)
same,Disease Control Rate n(%) (95% CI),[6],5 (100.0%)
same,Median PFS (95% CI),[6],"NE (8.34, NE)"
same,Clinical Benefit Rate n(%) (95% CI),"STS (Soft Tissue Sarcoma), N=2",1 (50.0%)
same,Confirmed Objective Response Rate n(%) (95% CI),"STS (Soft Tissue Sarcoma), N=2","0 (NE, NE) %"
same,Disease Control Rate n(%) (95% CI),"STS (Soft Tissue Sarcoma), N=2",1 (50.0%)
same,Median PFS (95% CI),"STS (Soft Tissue Sarcoma), N=2","NE (3.94, NE)"
same,Clinical Benefit Rate n(%) (95% CI),"Total, N=178",82 (46.1%)
same,Confirmed Objective Response Rate n(%) (95% CI),"Total, N=178",52 (29.2%)
same,Disease Control Rate n(%) (95% CI),"Total, N=178",129 (72.5%)
same,Median PFS (95% CI),"Total, N=178","4.21 (4.04, 5.52) months"
same,Clinical Benefit Rate n(%) (95% CI),[7],3 (42.9%)
same,Confirmed Objective Response Rate n(%) (95% CI),[7],3 (42.9%)
same,Disease Control Rate n(%) (95% CI),[7],4 (57.1%)
same,Median PFS (95% CI),[7],"4.07 (1.38, NE) months"
same,Clinical Benefit Rate n(%) (95% CI),"sqNSCLC (Squamous NSCLC), N=11",3 (27.3%)
same,Confirmed Objective Response Rate n(%) (95% CI),"sqNSCLC (Squamous NSCLC), N=11",3 (27.3%)
same,Disease Control Rate n(%) (95% CI),"sqNSCLC (Squamous NSCLC), N=11",10 (90.9%)
same,Median PFS (95% CI),"sqNSCLC (Squamous NSCLC), N=11","5.03 (2.37, NE) months"
same,Median OS (95% CI),"BRST (Breast Cancer), N=14","8.87 (4.86, NE) months"
same,Median OS (95% CI),"CCA (Cholangiocarcinoma), N=31","14.46 (12.09, NE) months"
same,Median OS (95% CI),"CRC (Colorectal Cancer), N=6","5.68 (1.22, NE) months"
same,Median OS (95% CI),"CRVX (Cervical Cancer), N=4","4.40 (3.48, NE) months"
same,Median OS (95% CI),[1],"11.99 (2.99, NE) months"
same,Median OS (95% CI),[2],"NE (1.74, NE)"
same,Median OS (95% CI),"ESOPH (Esophageal Cancer), N=6","3.42 (1.28, NE) months"
same,Median OS (95% CI),"GSTRC (Gastric Cancer), N=5","3.29 (2.89, NE) months"
same,Median OS (95% CI),"HGG (High-grade Glioma), N=29","6.49 (3.75, 14.39) months"
same,Median OS (95% CI),[3],"NE (0.39, NE)"
same,Median OS (95% CI),"LGG (Low-grade Glioma), N=6","10.94 (5.72, NE) months"
same,Median OS (95% CI),"OVAR (Ovarian Cancer), N=4","NE (NE, NE)"
same,Median OS (95% CI),"Other, N=31","NE (3.94, NE)"
same,Median OS (95% CI),[4],"NE (3.29, NE)"
same,Median OS (95% CI),[5],"12.12 (7.26, NE) months"
same,Median OS (95% CI),"PCA (Prostate Cancer), N=2","NE (3.48, NE)"
same,Median OS (95% CI),[6],"NE (NE, NE)"
same,Median OS (95% CI),"STS (Soft Tissue Sarcoma), N=2","NE (3.94, NE)"
same,Median OS (95% CI),"Total, N=178","10.94 (7.89, 14.26) months"
same,Median OS (95% CI),[7],"NE (2.40, NE)"
same,Median OS (95% CI),"sqNSCLC (Squamous NSCLC), N=11","6.83 (2.37, NE) months"
same,Median DOR,[8],"6.08 (NE, NE) months"
same,Objective Response Rate,[8],"3 (42.9%) (9.9%, 81.6%)"
